Measured values reported in patent US9708359B2, “Pyrrolopyrimidine nucleosides and analogs thereof” (Chimerix, Inc., priority 2015, dated 2017).

Assays:
JCV = test: qPCR assay for JCV; assay type: cell-based, JC virus; conditions: JC polyomavirus, 293TT cells
Experimental: qPCR Assays for BKV and JCV:
Primary evaluation of compounds against JC virus were also performed by methods similar to those for BK virus primary assays. Secondary assays against JCV were performed in COS7 cells by methods similar to those for BK virus to identify compounds that inhibited adsorption or penetration of the virus.
Primary evaluation of compounds against JC virus were also performed by methods similar to those for BK virus primary assays but were done in 293TT cells and utilized the 1-4 strain of JCV in 293TT cells. Viral DNA was quantified using primers 5′-[…]-3′ (SEQ ID No. 11) and 5′-[…]-3′ (SEQ ID No. 12) and probe 5′-6-FAM-[…]-TAMRA-3′ (SEQ ID No. 13) together with the plasmid pMP508 to provide a standard curve for absolute quantification. Secondary assays against JCV were performed in COS7 cells by methods similar to those for BK virus to identify compounds that inhibited adsorption or penetration of the virus.

ENTV-71 = test: microbe, parasite or virus in culture; assay type: cell-based; conditions: Enterovirus, Vero 76; ENTV-71, Vero76 cells
HCV = test: microbe, parasite or virus in culture; assay type: cell-based; conditions: Hepatitis C virus, Huh 7 cells
Experimental: (§1) Luciferase reporter (Replicon)/CytoTox-1 (Toxicity). Compounds were screened for anti-HCV activity using a luciferase (Luc) reporter gene endpoint in the HCV primary assay. The Luc reporter was used as an indirect measure of HCV replication as its activity is directly proportional to HCV RNA levels. Assessment of cytotoxicity is conducted in parallel. Drug stocks were prepared in DMSO unless otherwise specified and were diluted with tissue culture medium to the desired high-test concentration. For each assay, the compounds were then further diluted in tissue culture medium as required. After incubation, the cells were processed to derive, where applicable, EC50 and EC90 (compound concentration reducing replicon replication by 50% and 90% respectively). […] Anti-HCV activity was assessed with the replicon (genotype 1b or 2a) or HCVcc virus-derived Luc activity as readout; whereas the cytotoxic concentrations of drug reducing cell numbers was assessed by the CytoTox-1 cell proliferation assay according to manufacturer's protocol. […]
(§2) Luciferase reporter (Replicon)/CytoTox-1 (Toxicity). […] Anti-HCV activity was assessed with the replicon (genotype 1b or 2a) or HCVcc virus-derived Luc activity as readout; whereas the cytotoxic concentrations of drug reducing cell numbers was assessed by the CytoTox-1 cell proliferation assay (Promega, Madison, Wis.) according to manufacturer's protocol. […]

POV-3 = test: microbe, parasite or virus in culture; assay type: cell-based, Poliovirus; conditions: Enterovirus C, Vero 76
SARS = test: organism not typed; assay type: cell-based, SARS CoV; conditions: Vero 76
RVFV = test: microbe, parasite or virus in culture; assay type: cell-based; conditions: Rift Valley fever virus, Vero 76
YFV = test: microbe, parasite or virus in culture; assay type: cell-based; conditions: Yellow fever virus, Vero
[1] = CytoTox-1 cytotoxicity assay in Huh 7 cells; assay type: cell-based; conditions: human, parallel to HCV assay
Experimental: as §1, §2

[2] = test system: murine norovirus (MNV) CR3; test: Study No. 2: efficacy against Murine Norovirus infection in mice; assay type: in vivo, BALB/c mice; conditions: twice daily 300 mg/kg starting 2 days prior to infection, 10^4 PFU
Experimental: Study No. 2 evaluated the efficacy of twice-daily dosing of Compound 1 at 150 mg/kg or 300 mg/kg, initiated prior to infection of mice with 10^4 pfu of MNV CR3. A control group of mice treated with vehicle was also included. The 150 mg/kg dose was started either 2 days (39 hours) prior to inoculation, 1 day (15 hours) prior to inoculation, or on the day of (3 hours prior to) inoculation; the 300 mg/kg dose was started 2 days (39 hours) prior to infection.
This study tested the ability of Compound 1 to protect mice from or reduce murine norovirus infection. Compound was delivered twice daily at indicated doses via oral gavage starting 2 days prior to inoculation, 1 day prior to inoculation or at time of inoculation. A control group of mice treated with vehicle only was also included. Mice were infected with 10^4 PFU of murine norovirus by pipetting virus into mouth 3 hours after the Day 0 dose. All samples were titered by plaque assay.
For both studies, compound was delivered via oral gavage at the indicated doses and times prior to infection. Mice were infected with murine norovirus CR3 by pipetting virus into mouth 3 hours after the first day 0 dose of Compound 1 was given. Following infection, compound was administered twice daily through day 3 post-infection.
The mice used were ˜20 gram, 8-12 week old female BALB/c mice in groups of 5. […]

human norovirus = test: Efficacy of Compound 1 Against Human Norovirus (viral titer); assay type: cell-based; conditions: cells pretreated with 25 μM compound for two hours; duplicate (FIGS. 4-6)
Experimental: The efficacy of compound 1 for inhibiting norovirus was compared to DMSO (as a control), compound 2, and 2′-C-methylcytidine triphosphate (2′CmeC TP). Cells were pretreated with 25 μM of experimental compound for two hours. Virus inoculum was added for two hours, and unbound virus washed off and fresh media and fresh experimental compound was added.

[3] = Cytotoxicity (CC50) in RAW cells; conditions: mouse

With `Cc1nc(N)c2c(C(N)=O)cn([C@@H]3O[C@H](CO)[C@@H](O)[C@H]3O)c2n1` [Compound 1, 4-amino-7-((2R,3R,4S,5R)-3,4-dihydroxy-5-(hydroxymethyl)tetrahydrofuran-2-yl)-2-methyl-7H-pyrrolo[2,3-d]pyrimidine-5-carboxamide] the EC50 (JCV) was 0.46 µM, the EC50 (ENTV-71) was > 100 µM and the EC50 (HCV) was 18.4 µM. The EC50 (POV-3) was > 100 µM, the EC50 (SARS) was 37 µM and the EC50 (RVFV) was > 100 µM. For the same molecule, the EC50 (YFV) was > 100 µM, the CC50 [1] was > 20 µM and the “murine norovirus titer in tissue and feces” value [2] was “significantly reduces murine norovirus titer both in tissue and feces”. For the same molecule, the viral titer (human norovirus) was “increased less than one order of magnitude” and the CC50 [3] was 114 µM.
